Test results taken from PMC6002545, “Deciphering the late steps of rifamycin biosynthesis” (Nature Communications, 2018).

Molecular target: T1, Rif16 (Amycolatopsis mediterranei, UniProt A0A0H3CVZ6)
T1 construct: gene AMED_0653; N-terminally His6-tagged Rif16 (rif16 from A. mediterranei S699)
Test: Type I spectral substrate binding titration; co-crystal structure at […] Å

T1 sequence (A0A0H3CVZ6 entry or part of it): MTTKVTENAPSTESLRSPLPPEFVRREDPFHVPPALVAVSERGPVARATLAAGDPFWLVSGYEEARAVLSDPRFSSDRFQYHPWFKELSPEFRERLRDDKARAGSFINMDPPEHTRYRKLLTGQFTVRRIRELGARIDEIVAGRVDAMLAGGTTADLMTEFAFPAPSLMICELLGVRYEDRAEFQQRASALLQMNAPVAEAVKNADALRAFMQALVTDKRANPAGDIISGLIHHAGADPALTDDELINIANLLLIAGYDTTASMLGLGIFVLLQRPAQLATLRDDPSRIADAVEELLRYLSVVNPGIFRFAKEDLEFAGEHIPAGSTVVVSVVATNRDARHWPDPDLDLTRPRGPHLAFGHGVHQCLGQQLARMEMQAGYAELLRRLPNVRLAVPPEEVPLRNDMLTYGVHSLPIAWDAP

Kd: 1300 ± 100 nM
Compound: CO[C@H]1/C=C/O[C@@]2(C)Oc3c(C)c(O)c4c(O)c(cc(OC(=O)CO)c4c3C2=O)NC(=O)/C(C)=C/C=C/[C@H](C)[C@H](O)[C@@H](C)[C@@H](O)[C@@H](C)[C@H](OC(C)=O)[C@@H]1C [R-L, rifamycin L]
